Reference: ChEMBL document CHEMBL1142801, “Bradykinin B1 antagonists: SAR studies in the 2,3-diaminopyridine series” (Bioorg Med Chem Lett, 2005)

Experiments:
B1 bradykinin receptor = molecular target: T1, B1 bradykinin receptor (Homo sapiens, UniProt P46663); test: Binding affinity against Human bradykinin receptor B1
T1 sequence (P46663 whole entry): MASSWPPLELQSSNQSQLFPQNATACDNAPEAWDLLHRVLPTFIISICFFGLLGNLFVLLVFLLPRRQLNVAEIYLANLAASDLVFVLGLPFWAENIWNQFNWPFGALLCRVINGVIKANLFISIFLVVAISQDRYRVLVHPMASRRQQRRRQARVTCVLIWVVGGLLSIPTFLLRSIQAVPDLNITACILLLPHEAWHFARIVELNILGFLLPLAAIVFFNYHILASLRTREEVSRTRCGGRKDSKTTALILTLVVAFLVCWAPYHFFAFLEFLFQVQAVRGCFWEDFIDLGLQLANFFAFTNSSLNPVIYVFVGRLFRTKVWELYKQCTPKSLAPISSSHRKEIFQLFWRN

[1] = Partition coefficient (logP); conditions: octanol/water
[2] = Protein binding using 10% human serum; type: ADME; conditions: for fraction unbound: 10% human serum, read-out: Protein binding (converted)
[3] = Bioavailability of compound upon oral administration of 10 mg/kg (dose) in Sprague Dawley rat; type: ADME, organism-based; conditions: in vivo
[4] = Volume of distribution was determined in Sprague Dawley rats; type: ADME, organism-based; conditions: rat, in vivo
[5] = Clearance in Sprague Dawley rats; type: ADME, organism-based; conditions: rat, in vivo
[6] = Half life in Sprague Dawley rats; type: ADME; conditions: rat, in vivo

| Structure (SMILES) | Ki (B1 bradykinin receptor) [nM] | fraction unbound [2] | logP ([1]; logP) | further results |
| --- | --- | --- | --- | --- |
| COC(=O)C1CC=CCC1c1ccc(CNc2nccc(C)c2NC(=O)CC#N)cc1 (stereo in doubt; (-)18) | 1 |  |  | logP [1]: 2.4 |
| COC(=O)C1CC=CCC1c1ccc(CNc2nccc(C)c2NC(=O)CC#N)cc1 (racemic; cis) | 7 |  |  | Protein binding ([2]; serum): 96%; logP [1]: 3.3 |
| COC(=O)C1CC=CCC1c1ccc(CNc2nccc(C)c2NC(=O)CC#N)cc1 (racemic; trans) | 0.83 | 0.04 | 2.7 | bioavailability [3]: 5%; Vd [4]: 0.55 L/kg; clearance [5]: 29 mL/min/kg; half-life [6]: 1 h |
| COC(=O)C1C2CCC(CC2)C1c1ccc(CNc2nccc(C)c2NC(=O)CC#N)cc1 (racemic) | 54 |  |  | logP [1]: 3.4 |
| COC(=O)c1ccccc1C1CCC(CNc2nccc(C)c2NC(=O)CC#N)CC1 (stereo unspecified) | 385 |  | 2.7 |  |
| COC(=O)C1CC=CCC1c1ccc(CNc2nccc(C)c2NC(=O)CC#N)cc1 (single isomer, unassigned; (+)) | 1.3 |  |  | logP [1]: 2.3 |
| COC(=O)C1CCCCC1c1ccc(CNc2nccc(C)c2NC(=O)CC#N)cc1 (racemic) | 2.2 | 0.05 | 2.7 | bioavailability [3]: 4%; Vd [4]: 0.38 L/kg; clearance [5]: 30 mL/min/kg; half-life [6]: 0.5 h |
| COC(=O)C1C2C=CC(CC2)C1c1ccc(CNc2nccc(C)c2NC(=O)CC#N)cc1 (racemic; form 2) | 38 |  |  |  |
| COC(=O)C1=C(c2ccc(CNc3nccc(C)c3NC(=O)CC#N)cc2)CCCC1 | 35 | 0.04 | 3 |  |
| COC(=O)C1C2C=CC(CC2)C1c1ccc(CNc2nccc(C)c2NC(=O)CC#N)cc1 (racemic; form 1) | 142 |  |  | logP [1]: 3.1 |
| COC(=O)c1cccn1-c1ccc(CNc2nccc(C)c2NC(=O)CC#N)cc1 | 250 | 0.19 | 2.4 |  |
| COC(=O)C1CCCN1c1ccc(CNc2nccc(C)c2NC(=O)CC#N)cc1 (stereo unspecified) | > 5000 |  |  |  |
| COC(=O)C1CCCCN1c1ccc(CNc2nccc(C)c2NC(=O)CC#N)cc1 (stereo unspecified) | > 5000 | 0.22 | 2.7 |  |
| Cc1noc([C@H]2CC=CC[C@@H]2c2ccc(CNc3nccc(C)c3NC(=O)CC#N)cc2)n1 | 2 | 0.08 | 2.4 | bioavailability [3]: 18%; Vd [4]: 0.47 L/kg; clearance [5]: 17 mL/min/kg; half-life [6]: 1.2 h |
| COC(=O)C1=C(c2ccc(CNc3nccc(C)c3NC(=O)CC#N)cc2)CCC1 | 126 |  |  |  |
| COC(=O)C1C2CCC(C2)C1c1ccc(CNc2nccc(C)c2NC(=O)CC#N)cc1 (racemic) | 730 |  |  |  |
| COC(=O)c1ccccc1-c1ccc(CNc2nccc(C)c2NC(=O)CC#N)cc1 | 11 | 0.01 | 2.5 | bioavailability [3]: 18%; Vd [4]: 0.36 L/kg; clearance [5]: 4.3 mL/min/kg; half-life [6]: 1.9 h |
| COC(=O)c1ccccc1N1CC=C(CNc2nccc(C)c2NC(=O)CC#N)CC1 | 130 |  |  |  |
| COC(=O)N1CCCCC1c1ccc(CNc2nccc(C)c2NC(=O)CC#N)cc1 (stereo unspecified) | > 5000 |  |  |  |
| COC(=O)c1ccccc1N1CCC(CNc2nccc(C)c2NC(=O)CC#N)CC1 | 13 | 0.07 | 2.1 |  |
| COC(=O)c1ccccc1N1CCC(C)(CNc2nccc(C)c2NC(=O)CC#N)CC1 | 3500 | 0.1 | 2.6 |  |
| COC(=O)c1ccccc1N1CCC(O)(CNc2nccc(C)c2NC(=O)CC#N)CC1 | > 5000 | 0.35 |  | bioavailability [3]: 22%; Vd [4]: 0.24 L/kg; clearance [5]: 2.2 mL/min/kg; half-life [6]: 3 h |
| COC(=O)c1ccccc1C1=CCC(CNc2nccc(C)c2NC(=O)CC#N)CC1 (stereo unspecified) | 25 | 0.01 | 2.5 |  |
